Experimental data reported in patent US20260217735A1, “HETEROCYCLES AND USES THEREOF” (Kumquat Biosciences Inc., priority 2023, published 2026).

What was measured:
Assay type in all cases: biochemical
KRAS G12D = target: T1, KRAS G12D (Homo sapiens, UniProt P01116, G12D); experiment: HTRF assay, KRAS G12D interaction with SOS1; conditions: bins <500 nM / 500 nM to 1000 nM, read-out: Inhibition of KRAS G12D (IC50)
T1 construct: made in house; host or cells: E. coli, e.g. BL21 (DE3)
Excerpt: (§1) This assay can be also used to assess a selective inhibition or reduction of signaling output of a mutant Ras protein relative to a wildtype, or relative to a different mutant Ras protein. For example, the equilibrium interaction of wildtype KRAS or K-Ras mutant (e.g., wildtype or a mutant thereof) with SOS1 (e.g., hSOS1) can be assessed as a proxy or an indication for the ability of a subject compound to bind and inhibit Ras protein. The HTRF assay detects from (i) a fluorescence resonance energy transfer (FRET) donor (e.g., antiGST-Europium) that is bound to GST-tagged K-Ras mutant to (ii) a FRET acceptor (e.g., anti-6His-XL665) bound to a His-tagged hSOSL1.
(§2) The assay buffer can contain ~5 mM HEPES pH 7.4, ~150 mM NaCl, ~1 mM DTT, 0.05% BSA and 0.0025% (v/v) Igepal. A Ras working solution is prepared in an assay buffer containing typically a suitable amount of the protein construct (e.g., GST-tagged K-Ras mutant) and the FRET donor (e.g., antiGST-Eu(K) from Cisbio, France). A SOS1 working solution is prepared in an assay buffer containing suitable amount of the protein construct (e.g., His-hSOS1) and the FRET acceptor (e.g., anti-6His-XL665 from Cisbio, France). A suitable amount of the protein construct will depend on the range of activity or range of IC50 values being detected or under investigation. For detecting an IC50 within a range of 500 nM, the protein constructs of the same range of molarity can be utilized.
(§3) A fixed volume of DMSO with or without test compound is transferred into a 384-well plate. Ras working solution is added to all wells of the test plate. SOS1 working solution is added to all wells except for those that are subsequently filled with inhibitor control solution. Upon incubation for about 10 minutes or longer, the fluorescence is measured with a M1000Pro plate reader (Tecan) using HTRF detection (excitation 337 nm, emission 1: 620 nm, emission 2: 665 nm). Compounds are tested in duplicate at different concentrations (for example, 10 μM, 2.5 μM, 0.63 μM, 0.16 μM, 0.04 μM, 0.01 μM test compound). The ratiometric data (i.e., emission 2 divided by emission 1) is used to calculate IC50 values against Ras using GraphPad Prism (GraphPad software). Signaling output measured in terms of IC50 values can be obtained and a ratio of IC50 against one mutant relative to another mutant can be calculated. For instance, a selective reduction of K-Ras G12S signaling output can be evidenced by a ratio greater than one. In particular, a selective reduction of K-Ras G12S signaling relative to K-Ras WT signaling is evidenced if the ratio of IC50 (against K-Ras WT) to IC50 (against K-Ras G12S) is greater than 1.

KRAS WT = target: T2, KRAS WT (Homo sapiens, UniProt P01116); experiment: HTRF assay, wildtype KRAS interaction with SOS1; conditions: bins <500 nM / 500 nM to 1000 nM, read-out: Inhibition of KRAS WT (IC50)
T2 construct: made in house; host or cells: E. coli, e.g. BL21 (DE3)
T2 sequence (P01116 1-188 isoform P01116-2): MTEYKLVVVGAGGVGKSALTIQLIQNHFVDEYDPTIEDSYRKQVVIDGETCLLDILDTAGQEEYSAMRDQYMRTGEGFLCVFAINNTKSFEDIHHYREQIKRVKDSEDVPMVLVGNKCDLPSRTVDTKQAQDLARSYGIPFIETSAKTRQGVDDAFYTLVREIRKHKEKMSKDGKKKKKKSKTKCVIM
Excerpt: as §1, §2, §3

KRAS G12V = target: T3, KRAS G12V (Homo sapiens, UniProt P01116, G12V); experiment: HTRF assay, KRAS G12V interaction with SOS1; conditions: bins <500 nM / 500 nM to 1000 nM, read-out: Inhibition of KRAS G12V (IC50)
T3 construct: made in house; host or cells: E. coli, e.g. BL21 (DE3)
T3 sequence (P01116 1-188 isoform P01116-2 G12V): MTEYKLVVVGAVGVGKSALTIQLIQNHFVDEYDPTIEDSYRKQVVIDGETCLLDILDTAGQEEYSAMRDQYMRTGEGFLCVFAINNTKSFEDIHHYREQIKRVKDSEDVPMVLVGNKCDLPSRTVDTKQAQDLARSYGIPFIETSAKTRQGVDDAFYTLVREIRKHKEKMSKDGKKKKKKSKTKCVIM
Excerpt: as §1, §2, §3

KRAS G12S = target: T4, KRAS G12S (Homo sapiens, UniProt P01116, G12S); experiment: HTRF assay, KRAS G12S interaction with SOS1; conditions: bins <500 nM / 500 nM to 1000 nM, read-out: Inhibition of KRAS G12S (IC50)
T4 construct: made in house; host or cells: E. coli, e.g. BL21 (DE3)
T4 sequence (P01116 1-188 isoform P01116-2 G12S): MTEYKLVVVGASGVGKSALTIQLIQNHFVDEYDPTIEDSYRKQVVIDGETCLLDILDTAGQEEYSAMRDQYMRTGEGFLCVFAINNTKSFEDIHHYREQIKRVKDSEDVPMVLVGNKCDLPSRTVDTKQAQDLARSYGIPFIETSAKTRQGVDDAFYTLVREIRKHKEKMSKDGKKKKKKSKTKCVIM
Excerpt: as §1, §2, §3

Measured: IC50

T1 sequence (P01116 1-188 isoform P01116-2 G12D): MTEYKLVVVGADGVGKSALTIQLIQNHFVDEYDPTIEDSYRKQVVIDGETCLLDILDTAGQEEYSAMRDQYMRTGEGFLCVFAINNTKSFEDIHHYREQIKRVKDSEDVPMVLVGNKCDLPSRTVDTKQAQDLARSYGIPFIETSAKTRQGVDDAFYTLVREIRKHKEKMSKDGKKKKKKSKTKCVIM

CCN(c1nc(OC[C@@]23CCCN2C[C@H](F)C3)nc2c(F)c(-c3ccc(F)c4sc(N)c(C#N)c34)c(C3CC3)cc12)[C@@H]1CCN(C(=O)n2cc(C)nc2C)[C@@H]1C (atropisomer, axis not shown; (aS)) [Compound 190, (S)-2-amino-4-(6-cyclopropyl-4-(((2R,3R)-1-(2,4-dimethyl-1H-imidazole-1-carbonyl)-2-methylpyrrolidin-3-yl)(ethyl)amino)-8-fluoro-2-(((2R,7aS)-2-fluorotetrahydro-1H-pyrrolizin-7a(5H)-yl)methoxy)quinazolin-7-yl)-7-fluorobenzo[b]thiophene-3-carbonitrile]
< 500 nM: all assays above

CN(c1nc(OC[C@@]23CCCN2C[C@H](F)C3)nc2c(F)c(-c3ccc(F)c4sc(N)c(C#N)c34)c(Cl)cc12)C1CN(C(=O)n2ccnc2)CC1F (single isomer, unassigned) [Compound 191]
< 500 nM: all assays above

Cc1cn(C(=O)N2CC[C@@H](N(C)c3nc(OC[C@@]45CCCN4C[C@H](F)C5)nc4c(F)c(-c5ccc(F)c6sc(N)c(C#N)c56)c(Cl)cc34)[C@H]2C)c(C)n1 [Compound 105, 2-amino-4-(6-chloro-4-(((2R,3R)-1-(2,4-dimethyl-1H-imidazole-1-carbonyl)-2-methylpyrrolidin-3-yl)(methyl)amino)-8-fluoro-2-(((2R,7aS)-2-fluorotetrahydro-1H-pyrrolizin-7a(5H)-yl)methoxy)quinazolin-7-yl)-7-fluorobenzo[b]thiophene-3-carbonitrile]
< 500 nM: all assays above

CCN(c1nc(OC[C@@]23CCCN2C[C@H](F)C3)nc2c(F)c(-c3cccc4sc(N)c(C#N)c34)c(Cl)cc12)[C@@H]1CCN(C(=O)n2cc(C#N)nc2C)[C@@H]1C [Compound 113, 1-((2R,3R)-3-((7-(2-amino-3-cyanobenzo[b]thiophen-4-yl)-6-chloro-8-fluoro-2-(((2R,7aS)-2-fluorotetrahydro-1H-pyrrolizin-7a(5H)-yl)methoxy)quinazolin-4-yl)(ethyl)amino)-2-methylpyrrolidine-1-carbonyl)-2-methyl-1H-imidazole-4-carbonitrile]
< 500 nM: all assays above

Cc1ncn(C(=O)N2C[C@H]3[C@@H]2CCCN3c2nc(OC[C@]34CCCN3C[C@@H](F)C4)nc3c(F)c(-c4ccc(F)c5sc(N)c(C#N)c45)c(Cl)cc23)c1C [Compound 129, 2-amino-4-(6-chloro-4-((1S,6S)-7-(4,5-dimethyl-1H-imidazole-1-carbonyl)-2,7-diazabicyclo[4.2.0]octan-2-yl)-8-fluoro-2-(((2S,7aR)-2-fluorotetrahydro-1H-pyrrolizin-7a(5H)-yl)methoxy)quinazolin-7-yl)-7-fluorobenzo[b]thiophene-3-carbonitrile]
< 500 nM: all assays above

CCN(c1nc(OC[C@@]23CCCN2C[C@H](F)C3)nc2c(F)c(-c3ccc(F)c4sc(N)c(C#N)c34)c(Cl)cc12)[C@@H]1CCN(C(=O)n2cnc3c2CCC3)[C@@H]1C [Compound 132, 2-amino-4-(6-chloro-4-(ethyl((2R,3R)-2-methyl-1-(1,4,5,6-tetrahydrocyclopenta[d]imidazole-1-carbonyl)pyrrolidin-3-yl)amino)-8-fluoro-2-(((2R,7aS)-2-fluorotetrahydro-1H-pyrrolizin-7a(5H)-yl)methoxy)quinazolin-7-yl)-7-fluorobenzo[b]thiophene-3-carbonitrile]
< 500 nM: all assays above

CC1CC(N(C)c2nc(OC[C@@]34CCCN3C[C@H](F)C4)nc3c(F)c(-c4ccc(F)c5sc(N)c(C#N)c45)c(Cl)cc23)CN1C(=O)n1cnc(F)n1 (stereo partly drawn) [Compound 146, 2-amino-4-(6-chloro-8-fluoro-4-((1-(3-fluoro-1H-1,2,4-triazole-1-carbonyl)-5-methylpyrrolidin-3-yl)(methyl)amino)-2-(((2R,7aS)-2-fluorotetrahydro-1H-pyrrolizin-7a(5H)-yl)methoxy)quinazolin-7-yl)-7-fluorobenzo[b]thiophene-3-carbonitrile]
< 500 nM: all assays above

CC1CC(N(C)c2nc(OC[C@@]34CCCN3C[C@H](F)C4)nc3c(F)c(-c4ccc(F)c5sc(N)c(C#N)c45)c(Cl)cc23)CCN1C(=O)n1ccnc1 (stereo partly drawn) [Compound 153, 4-(4-((1-(1H-imidazole-1-carbonyl)-2-methylpiperidin-4-yl)(methyl)amino)-6-chloro-8-fluoro-2-(((2R,7aS)-2-fluorotetrahydro-1H-pyrrolizin-7a(5H)-yl)methoxy)quinazolin-7-yl)-2-amino-7-fluorobenzo[b]thiophene-3-carbonitrile]
< 500 nM: KRAS WT | KRAS G12V | KRAS G12S

COCC1([C@H]2N(C(=O)n3cnc(C)c3)C[C@]23CCCCN(c2nc(OC[C@@]45CCCN4C[C@H](F)C5)nc4c(F)c(-c5ccc(F)c6sc(N)c(C#N)c56)c(Cl)cc24)C3)CC1 [Compound 203, 2-amino-4-(6-chloro-8-fluoro-2-(((2R,7aS)-2-fluorotetrahydro-1H-pyrrolizin-7a(5H)-yl)methoxy)-4-((1S,4R)-1-(1-(methoxymethyl)cyclopropyl)-2-(4-methyl-1H-imidazole-1-carbonyl)-2,6-diazaspiro[3.6]decan-6-yl)quinazolin-7-yl)-7-fluorobenzo[b]thiophene-3-carbonitrile]
< 500 nM: all assays above

Cc1ncn(C(=O)N2CC3CCCN(c4nc(OC[C@@]56CCCN5C[C@H](F)C6)nc5c(F)c(-c6ccc(F)c7sc(N)c(C#N)c67)c(Cl)cc45)C3C2)c1C (stereo partly drawn) [Compound 206, 2-amino-4-(6-chloro-4-(6-(4,5-dimethyl-1H-imidazole-1-carbonyl)octahydro-1H-pyrrolo[3,4-b]pyridin-1-yl)-8-fluoro-2-(((2R,7aS)-2-fluorotetrahydro-1H-pyrrolizin-7a(5H)-yl)methoxy)quinazolin-7-yl)-7-fluorobenzo[b]thiophene-3-carbonitrile]
< 500 nM: all assays above
